US8394969B2, “Cyclic benzimidazole derivatives useful as anti-diabetic agents” (Merck Sharp & Dohme Corp., priority 2008, dated 2013)
pEC50: −log10 of the molar value. Where a name gives a salt, the structure may show the parent alone.

Target: recombinant human AMPK complex 1 (containing α1β1γ1) (Homo sapiens, UniProt Q13131+Q9Y478)
Assay: […] (in vitro AMPK activation assay)
Assay type: biochemical
Details: not given

recombinant human AMPK complex 1 (containing α1β1γ1), sequence (Q13131 whole entry): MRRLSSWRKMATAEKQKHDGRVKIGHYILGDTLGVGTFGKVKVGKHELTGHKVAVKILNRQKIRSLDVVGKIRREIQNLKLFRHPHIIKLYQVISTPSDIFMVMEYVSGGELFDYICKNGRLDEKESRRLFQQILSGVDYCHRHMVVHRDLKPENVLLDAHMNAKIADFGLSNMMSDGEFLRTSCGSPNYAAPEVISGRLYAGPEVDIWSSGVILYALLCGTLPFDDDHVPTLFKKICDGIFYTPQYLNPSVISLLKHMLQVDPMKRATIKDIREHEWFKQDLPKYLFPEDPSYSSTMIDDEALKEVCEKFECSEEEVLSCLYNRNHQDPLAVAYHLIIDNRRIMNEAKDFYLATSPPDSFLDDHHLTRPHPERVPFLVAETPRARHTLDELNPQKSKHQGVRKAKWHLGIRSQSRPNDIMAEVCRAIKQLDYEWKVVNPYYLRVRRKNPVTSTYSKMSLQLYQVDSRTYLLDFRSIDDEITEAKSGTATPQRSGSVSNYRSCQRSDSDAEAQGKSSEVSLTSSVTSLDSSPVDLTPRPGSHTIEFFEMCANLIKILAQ
recombinant human AMPK complex 1 (containing α1β1γ1), sequence (Q9Y478 whole entry): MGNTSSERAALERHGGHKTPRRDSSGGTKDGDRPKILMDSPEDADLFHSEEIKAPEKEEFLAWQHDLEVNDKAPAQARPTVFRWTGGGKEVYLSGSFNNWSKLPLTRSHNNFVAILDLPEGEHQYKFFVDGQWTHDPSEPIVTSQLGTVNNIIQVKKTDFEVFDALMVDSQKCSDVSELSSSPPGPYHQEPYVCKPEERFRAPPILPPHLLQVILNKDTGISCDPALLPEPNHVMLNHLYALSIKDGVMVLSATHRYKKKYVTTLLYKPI
recombinant human AMPK complex 1 (containing α1β1γ1), sequence (P54619 whole entry partner): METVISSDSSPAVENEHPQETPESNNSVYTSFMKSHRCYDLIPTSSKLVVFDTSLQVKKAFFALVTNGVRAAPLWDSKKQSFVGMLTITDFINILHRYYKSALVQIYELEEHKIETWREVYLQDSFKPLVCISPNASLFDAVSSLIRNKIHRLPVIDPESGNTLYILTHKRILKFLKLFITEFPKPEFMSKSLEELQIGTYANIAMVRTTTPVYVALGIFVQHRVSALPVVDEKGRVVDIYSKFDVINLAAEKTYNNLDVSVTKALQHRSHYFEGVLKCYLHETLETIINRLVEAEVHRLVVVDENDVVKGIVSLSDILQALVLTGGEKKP

Q: For `CCCc1ccc(-c2cc3nc(Oc4ccc(C)c(C(=O)O)c4)[nH]c3cc2Cl)cc1.N` [Example 348, Ammonium 5-{[6-chloro-5-(4-propylphenyl)-1H-benzimidazol-2-yl]oxy}-2-methylbenzoate], which “% Maximum AMP Activation of human AMPK Complex 1” value is on record?
A: greater than 80%

Same assay, conditions: read-out: % Maximum AMP Activation of human AMPK Complex 1, recombinant human AMPK complex 1 (α1β1γ1); basal activity subtracted

Q: With `CCCCc1ccc(-c2cc3nc(Oc4ccc(C)c(C(=O)O)c4)[nH]c3cc2Cl)cc1` [Example 344, Ammonium 5-{[5-(4-butylphenyl)-6-chloro-1H-benzimidazol-2-yl]oxy}-2-methylbenzoate] as the compound, how does the Emax read?
A: > 80%

Q: For `COc1ccc(-c2cc3nc(Oc4ccc(C)c(C(=O)O)c4)[nH]c3cc2Cl)cc1` [Example 345, Ammonium 5-{[6-chloro-5-(4-methoxyphenyl)-1H-benzimidazol-2-yl]oxy}-2-methylbenzoate], which Emax is on record?
A: > 80%

Q: Which Emax does the source give for `Cc1ccc(Oc2nc3cc(-c4cccc(N(C)C)c4)c(Cl)cc3[nH]2)cc1C(=O)O` [Example 346, Ammonium 5-({6-chloro-5-[3-(dimethylamino)phen-yl]-1H-benzimidazol-2-yl}oxy)-2-methylbenzoate] here?
A: > 80%

Q: With `Cc1ccc(Oc2nc3cc(-c4ccc(OC(F)(F)F)cc4)c(Cl)cc3[nH]2)cc1C(=O)O` [Example 363, Ammonium 5-({6-chloro-5-[4-(trifluoromethoxy)phenyl]-1H-benzimidazol-2-yl}oxy)-2-methylbenzoate] as the compound, how does the Emax read?
A: > 80%

Same assay, conditions: recombinant human AMPK complex 1 (α1β1γ1); basal activity subtracted; read-out: % Maximum AMP Activation of human AMPK Complex 1

Q: For `CCCc1ccc(-c2cc3nc(Oc4ccc(C)c(C(=O)O)c4)[nH]c3cc2Cl)cc1` [Example 347, 2-(3-carboxy-4-methylphenoxy)-6-chloro-5-(4-propylphenyl)-1H-3,1-benzimidazol-3-ium trifluoroacetate], which Emax is on record?
A: > 80%

Q: For `Cc1ccc(Oc2nc3cc(-c4ccc5c(c4)c(C#N)cn5C)c(Cl)cc3[nH]2)cc1C(=O)O` [Example 349, 2-(3-carboxy-4-methylphenoxy)-6-chloro-5-(3-cyano-1-methyl-1H-indol-5-yl)-1H-3,1-benzimidazol-3-ium trifluoroacetate], which Emax is on record?
A: > 80%

Q: Which Emax does the source give for `Cc1ccc(Oc2nc3cc(-c4ccc(N5CCCC5=O)cc4)c(Cl)cc3[nH]2)cc1C(=O)O` [Example 350, 2-(3-carboxy-4-methylphenoxy)-6-chloro-5-[4-(2-oxopyrrolidin-1-yl)phenyl]-1H-3,1-benzimidazol-3-ium trifluoroacetate] here?
A: > 80%

Q: With `Cc1ccc(Oc2nc3cc(-c4ccc5c(ccn5CC(F)(F)F)c4)c(Cl)cc3[nH]2)cc1C(=O)O` [Example 351, 5-{6-Chloro-5-[1-(2,2,2-trifluoro-ethyl)-1H-indol-5-yl]-1H-benzoimidazol-2-yloxy}-2-methyl-benzoic acid] as the compound, how does the Emax read?
A: > 80%

Q: Which Emax does the source give for `Cc1ccc(Oc2nc3cc(-c4ccc(C(C)C)cc4)c(Cl)cc3[nH]2)cc1C(=O)O` [Example 352, 5-[6-Chloro-5-(4-isopropyl-phenyl)-1H-benzoimidazol-2-yloxy]-2-methyl-benzoic acid] here?
A: > 80%

Q: Which Emax does the source give for `Cc1ccc(Oc2nc3cc(-c4ccc5c(c4)c(CN(C)C)cn5C)c(Cl)cc3[nH]2)cc1C(=O)O` [Example 353, 5-[6-Chloro-5-(3-dimethylaminomethyl-1-methyl-1H-indol-5-yl)-1H-benzoimidazol-2-yloxy]-2-methyl-benzoic acid] here?
A: > 80%

Q: For `Cc1ccc(Oc2nc3cc(-c4nc5ccccc5s4)c(Cl)cc3[nH]2)cc1C(=O)O` [Example 354, 5-(5-Benzothiazol-2-yl-6-chloro-1H-benzoimidazol-2-yloxy)-2-methyl-benzoic acid], which Emax is on record?
A: > 80%

Q: For `Cc1ccc(Oc2nc3cc(-c4cc5ccccc5s4)c(Cl)cc3[nH]2)cc1C(=O)O` [Example 355, 5-(5-Benzo[b]thiophen-2-yl-6-chloro-1H-benzoimidazol-2-yloxy)-2-methyl-benzoic acid], which Emax is on record?
A: > 80%

Q: Which Emax does the source give for `Cc1ccc(Oc2nc3cc(-c4cc5ccccc5o4)c(Cl)cc3[nH]2)cc1C(=O)O` [Example 356, 5-(5-Benzofuran-2-yl-6-chloro-1H-benzoimidazol-2-yloxy)-2-methyl-benzoic acid] here?
A: > 80%

Q: For `Cc1ccc(Oc2nc3cc(-c4ccc(C5CCCCC5)cc4)c(Cl)cc3[nH]2)cc1C(=O)O` [Example 357, 5-[6-Chloro-5-(4-cyclohexyl-phenyl)-1H-benzoimidazol-2-yloxy]-2-methyl-benzoic acid], which Emax is on record?
A: > 80%

Q: Which Emax does the source give for `Cc1ccc(Oc2nc3cc(-c4ccc5c(c4)C(C)(C)CCC5(C)C)c(Cl)cc3[nH]2)cc1C(=O)O` [Example 358, 5-[6-Chloro-5-(5,5,8,8-tetramethyl-5,6,7,8-tetrahydro-naphthalen-2-yl)-1H-benzoimidazol-2-yloxy]-2-methyl-benzoic acid] here?
A: > 80%

Q: For `Cc1ccc(Oc2nc3cc(-c4ccc(-c5ccccc5)s4)c(Cl)cc3[nH]2)cc1C(=O)O` [Example 359, 5-{6-Chloro-5-(5-phenyl-thiophen-2-yl)-1H-benzoimidazol-2-yloxy}-2-methyl-benzoic acid], which Emax is on record?
A: > 80%

Q: Which Emax does the source give for `Cc1ccc(Oc2nc3cc(-c4ccc5c(c4)OCCO5)c(Cl)cc3[nH]2)cc1C(=O)O` [Example 360, 5-[6-Chloro-5-(2,3-dihydro-benzo[1,4]dioxin-6-yl)-1H-benzoimidazol-2-yloxy]-2-methyl-benzoic acid] here?
A: > 80%

Q: Which Emax does the source give for `Cc1ccc(Oc2nc3cc(-c4sc(-c5ccccc5)nc4C)c(Cl)cc3[nH]2)cc1C(=O)O` [Example 361, 5-[6-chloro-5-(4-methyl-2-phenyl-thiazol-5-yl)-1H-benzoimidazol-2-yloxy]-2-methyl-benzoic acid] here?
A: > 80%

Q: With `Cc1ccc(Oc2nc3cc(-c4ccc5c(c4)N(C)CCN5C)c(Cl)cc3[nH]2)cc1C(=O)O` [Example 362, 5-[6-chloro-5-(1,4-dimethyl-1,2,3,4-tetrahydro-quinoxalin-6-yl)-1H-benzoimidazol-2-yloxy]-2-methyl-benzoic acid] as the compound, how does the Emax read?
A: > 80%

Same assay, conditions: recombinant human AMPK complex 1 (α1β1γ1); read-out: EC50

Q: With `Cc1ccc(Oc2nc3cc(-c4ccc(-c5ccccc5)cc4)c(F)cc3[nH]2)cc1C(=O)O` [Example 365, 5-[(5-biphenyl-4-yl-6-fluoro-1H-benzimidazol-2-yl)oxy]-2-methylbenzoic acid] as the compound, how does the pEC50 read?
A: 8.05

Tested on: ob/ob and db/db mice
Assay: not given
Details: following 8 weeks of administration; cited from earlier work

Q: For `NC(=O)c1ncn([C@@H]2O[C@H](CO)[C@@H](O)[C@H]2O)c1N` [AICAR], which blood glucose reduction is on record?
A: 35%
